Measurements from US20120128654A1, “Allantoin Administration for the Treatment of Neurodegenerative Disease and Neurotrauma” (UNIVERSITY OF CINCINNATI, priority 2009, published 2012).
Entries after “also recorded” stand apart in the source; their conditions may differ.

Experiment: Whole brain allantoin levels after subcutaneous allantoin pellets (blood brain barrier crossing)
Format: in vivo, Sprague Dawley rats
Details: non-lesioned rats, s.c. allantoin pellets, three days following pellet implantation, relative to control rats
From the text: Continuous s.c. delivery of INO, KO and ALL was achieved by implanting matrix-driven pellets into the s.c. space. Animals were anesthetized with isofluorane and prepared for surgery using sterile procedures. A small incision was made posterior to the scapula and the pellet was placed in the subscapular space contralateral to the incision. This placement technique prevents migration of the pellet towards the incision, thereby reducing the incidents of rejection. Finally, the incision was closed using aseptic procedures. To determine the roles of UA and allantoin in inosine-mediated neuroprotection, animals were treated with the urate oxidase inhibitor KO. This approach has been widely used to prevent the enzymatic metabolism of UA to allantoin in other rodent models of disease.
To measure brain allantoin levels, whole brains were freeze dried, ground into a fine powder and homogenized in 0.8 ml of 2.5% trichloroacetic acid (TCA) per 100 mg. The homogenate was centrifuged at 18,000 rpm for 15 min. […] The remaining supernatant was then analyzed for allantoin.
To determine the ability of allantoin to cross the intact blood brain barrier (BBB), non-lesioned rats received either allantoin pellets or sham implantation. […] Whole brain levels of allantoin were determined enzymatically.

NC(=O)NC1NC(=O)NC1=O (stereo not shown) [allantoin]
whole brain allantoin levels: approximately double; also recorded: significant increase
